From patent US8754032B2, “Concomitant pharmaceutical agents and use thereof” (Mitsubishi Tanabe Pharma Corporation, priority 2005, dated 2014)
Read-outs that look alike come from different tables or passages of the source.

How the values were obtained:
[1] = tested on: Zucker Fatty (ZF) rats; test: Oral carbohydrate loading test of Zucker Fatty rats: compound 3, voglibose and combination (plasma glucose and insulin); assay type: in vivo, rat
Text: Four groups each containing 5 rats were formed. […] [table]

[2] = tested on: ZF rats

SMILES: Cc1cc(N2CCN([C@@H]3CN[C@H](C(=O)N4CCSC4)C3)CC2)n(-c2ccccc2)n1 [compound 3, 3-{(2S,4S)-4-[4-(3-methyl-1-phenyl-1H-pyrazol-5-yl)piperazin-1-yl]pyrrolidin-2-ylcarbonyl}thiazolidine]
- suppression of increase in plasma glucose after oral carbohydrate loading, as compared to the vehicle group ([1]; rat, in vivo): 33%
- increase of plasma insulin concentration as compared to the vehicle group ([1]; rat, in vivo, po, 0.1 mg/kg): about 3 fold
- suppression of increase in plasma glucose after oral carbohydrate loading, as compared to the vehicle group ([2]; rat, in vivo): 33%

SMILES: CN(C)C(=N)N=C(N)N [metformin, reference compound]
- suppression of increase in plasma glucose after oral carbohydrate loading, as compared to the vehicle group ([2]; male ZF rats, overnight fasted, compound 3 0.3 mg/kg and/or metformin 50 mg/kg given 15 min before mixed carbohydrates 3.5 g/kg orally, area value over 120 min): 13%

SMILES: OCC(CO)N[C@H]1C[C@](O)(CO)[C@@H](O)[C@H](O)[C@H]1O [voglibose, reference compound]
- suppression of increase in plasma glucose after oral carbohydrate loading, as compared to the vehicle group ([1]; male ZF rats, overnight fasted, compound 3 0.1 mg/kg and/or voglibose 0.1 mg/kg given 15 min before mixed carbohydrates 3.5 g/kg orally, area value over 60 min): 34%
